ChEMBL document CHEMBL6083210, “Exploring apoptotic induction of malabaricone A in triple-negative breast cancer cells: an acylphenol phyto-entity isolated from the fruit rind of Myristica malabarica Lam” (RSC Med Chem, 2024)
The source made the active and inactive calls. The calls are words filed in the database; no cut-off is given here.

What was measured:
MDA-MB-231 [1] = test: Antiproliferative activity against human MDA-MB-231 cells assessed as reduction in cell viability incubated for 24 hrs by MTT assay; assay type: functional, cell-based; settings: MDA-MB-231, 24 h
SK-BR-3 = test: Antiproliferative activity against human SK-BR-3 cells assessed as reduction in cell viability incubated for 24 hrs by MTT assay; assay type: functional, cell-based; settings: SK-BR-3, 24 h
MCF-10A = test: Antiproliferative activity against human MCF-10A cells assessed as reduction in cell viability incubated for 24 hrs by MTT assay; assay type: functional, cell-based
MDA-MB-231 [2] = test: Induction of morphological changes in human MDA-MB-231 cells assessed as decrease in cell number at 15 uM measured upto 18 hrs by acridine orange and ethidium bromide dual staining based inverted microscopic analysis; assay type: functional
MDA-MB-231 [3] = test: Antiproliferative activity against human MDA-MB-231 cells assessed as reduction in cell viability at 1 to 50 uM by MTT assay; assay type: functional, cell-based; settings: dose 1-50 µM, time 12-48 hrs
MDA-MB-231 [4] = test: Antiproliferative activity against human MDA-MB-231 cells assessed as reduction in cell viability measured after 12 to 48 hrs by MTT assay; assay type: functional, cell-based; settings: dose 1-50 µM, time 12-48 hrs
MDA-MB-231 [5] = test: Induction of morphological changes in human MDA-MB-231 cells assessed as appearance of spherical shaped cell at 6 to 10 uM measured 24 hrs by EtBr-AO Live dead Assay; assay type: functional, cell-based; settings: dose 6-10 µM
MDA-MB-231 [6] = test: Induction of morphological changes in human MDA-MB-231 cells assessed as membrane breakage at 6 to 10 uM measured 24 hrs by EtBr-AO Live dead Assay; assay type: functional, cell-based; settings: dose 6-10 µM
MDA-MB-231 [7] = test: Induction of morphological changes in human MDA-MB-231 cells assessed as membrane blebbing at 6 to 10 uM measured 24 hrs by EtBr-AO Live dead Assay; assay type: functional, cell-based; settings: dose 6-10 µM
MDA-MB-231 [8] = test: Induction of morphological changes in human MDA-MB-231 cells assessed as leakage of intracellular components at 6 to 10 uM measured 24 hrs by EtBr-AO Live dead Assay; assay type: functional, cell-based; settings: dose 6-10 µM
MDA-MB-231 [9] = test: Induction of apoptosis in human MDA-MB-231 cells assessed as increase in green fluorescence incubated for 24 hrs by acridine orange and ethidium bromide dual staining based analysis; assay type: functional, cell-based; settings: dose 6-10 µM
MDA-MB-231 [10] = test: Induction of apoptosis in human MDA-MB-231 cells assessed as increase in green fluorescence at 6 to 10 uM by acridine orange and ethidium bromide dual staining based analysis; assay type: functional, cell-based; settings: dose 6-10 µM, time 12-48 hrs
MDA-MB-231 [11] = test: Induction of apoptosis in human MDA-MB-231 cells assessed as dead cells by measuring pink coloration at 6 to 10 uM incubated for 24 hrs by APO staining based analysis; assay type: functional, cell-based; settings: dose 6-10 µM
MDA-MB-231 [12] = test: Induction of apoptosis in human MDA-MB-231 cells assessed as viable cells at 6 uM incubated for 24 hrs by FITC annexin V staining based analysis (reference value: 90.5%); assay type: functional; settings: read-out: Activity
MDA-MB-231 [13] = test: Induction of apoptosis in human MDA-MB-231 cells assessed as viable cells at 8 uM incubated for 24 hrs by FITC annexin V staining based analysis (reference value: 90.5%); assay type: functional; settings: read-out: Activity
MDA-MB-231 [14] = test: Induction of apoptosis in human MDA-MB-231 cells assessed as viable cells at 10 uM incubated for 24 hrs by FITC annexin V staining based analysis (reference value: 90.5%); assay type: functional; settings: read-out: Activity
MDA-MB-231 [15] = test: Induction of apoptosis in human MDA-MB-231 cells assessed as early apoptotic cells at 6 uM incubated for 24 hrs by FITC annexin V staining based analysis (reference value: 1.4%); assay type: functional
MDA-MB-231 [16] = test: Induction of apoptosis in human MDA-MB-231 cells assessed as early apoptotic cells at 8 uM incubated for 24 hrs by FITC annexin V staining based analysis (reference value: 1.4%); assay type: functional
MDA-MB-231 [17] = test: Induction of apoptosis in human MDA-MB-231 cells assessed as early apoptotic cells at 10 uM incubated for 24 hrs by FITC annexin V staining based analysis (reference value: 1.4%); assay type: functional
MDA-MB-231 [18] = test: Induction of apoptosis in human MDA-MB-231 cells assessed as late apoptotic cells at 6 uM incubated for 24 hrs by FITC annexin V staining based analysis (reference value: 7.3%); assay type: functional
MDA-MB-231 [19] = test: Induction of apoptosis in human MDA-MB-231 cells assessed as late apoptotic cells at 8 uM incubated for 24 hrs by FITC annexin V staining based analysis (reference value: 7.3%); assay type: functional
MDA-MB-231 [20] = test: Induction of apoptosis in human MDA-MB-231 cells assessed as late apoptotic cells at 10 uM incubated for 24 hrs by FITC annexin V staining based analysis (reference value: 7.3%); assay type: functional
MDA-MB-231 [21] = test: Induction of apoptosis in human MDA-MB-231 cells assessed as necrotic cells at 6 uM incubated for 24 hrs by FITC annexin V staining based analysis (reference value: 0.8%); assay type: functional
MDA-MB-231 [22] = test: Induction of apoptosis in human MDA-MB-231 cells assessed as necrotic cells at 8 uM incubated for 24 hrs by FITC annexin V staining based analysis (reference value: 0.8%); assay type: functional
MDA-MB-231 [23] = test: Induction of apoptosis in human MDA-MB-231 cells assessed as necrotic cells at 10 uM incubated for 24 hrs by FITC annexin V staining based analysis (reference value: 0.8%); assay type: functional
MDA-MB-231 [24] = test: Induction of apoptosis in human MDA-MB-231 cells assessed as fold increase in caspase 3 level at 8 uM by fluorometric assay; assay type: functional
MDA-MB-231 [25] = test: Induction of apoptosis in human MDA-MB-231 cells assessed as fold increase in caspase 9 level at 8 uM by fluorometric assay; assay type: functional
MDA-MB-231 [26] = test: Induction of apoptosis in human MDA-MB-231 cells assessed as fold increase in caspase 8 level at 8 uM incubated for 24 hrs by fluorometric assay; assay type: functional

IC50 (MDA-MB-231 [1]): 8.81 µM
IC50 (SK-BR-3): 8.39 µM
SMILES: O=C(CCCCCCCCc1ccccc1)c1c(O)cccc1O [MALABARICONE A]
IC50 (MCF-10A): 68.9 µM
Activity (MDA-MB-231 [2]): Active
Activity (MDA-MB-231 [3]): Time-dependent-effect
Activity (MDA-MB-231 [4]): Dose-dependent-effect
Activity (MDA-MB-231 [5]): Active
Activity (MDA-MB-231 [6]): Active
Activity (MDA-MB-231 [7]): Active
Activity (MDA-MB-231 [8]): Active
Activity (MDA-MB-231 [9]): Dose-dependent-effect
Activity (MDA-MB-231 [10]): Time-dependent-effect
Activity (MDA-MB-231 [11]): Active
viability at 6 µM (MDA-MB-231 [12]): 68.5%
viability at 8 µM (MDA-MB-231 [13]): 50.2%
viability at 10 µM (MDA-MB-231 [14]): 32.4%
Activity (MDA-MB-231 [15]): 7.3%
Activity (MDA-MB-231 [16]): 6.45%
Activity (MDA-MB-231 [17]): 4.25%
Activity (MDA-MB-231 [18]): 20.4%
Activity (MDA-MB-231 [19]): 35.25%
Activity (MDA-MB-231 [20]): 50.65%
Activity (MDA-MB-231 [21]): 3.85%
Activity (MDA-MB-231 [22]): 8.05%
Activity (MDA-MB-231 [23]): 12.7%
fold change (FC) (MDA-MB-231 [24]): 8.9
fold change (FC) (MDA-MB-231 [25]): 3.1
fold change (FC) (MDA-MB-231 [26]): 2.4
